The source of these data is patent US10723723B2, “Substituted bicycle heterocyclic derivatives useful as ROMK channel inhibitors” (BRISTOL-MYERS SQUIBB COMPANY, priority 2016, dated 2020).

Type in all cases: cell-based
The target of one series is hERG channels (Homo sapiens (Human), UniProt Q12809). Briefly: hERG Manual Patch Clamp Assay (HEK 293 cells stably expressing hERG channels). Particulars: for inhibition at 1 µM: human, HEK 293 cells stably expressing hERG channels, pH 7.4. A general note: Block of hERG is tested as a sign of cardiac risk.
Sequence of hERG channels (Q12809 whole entry): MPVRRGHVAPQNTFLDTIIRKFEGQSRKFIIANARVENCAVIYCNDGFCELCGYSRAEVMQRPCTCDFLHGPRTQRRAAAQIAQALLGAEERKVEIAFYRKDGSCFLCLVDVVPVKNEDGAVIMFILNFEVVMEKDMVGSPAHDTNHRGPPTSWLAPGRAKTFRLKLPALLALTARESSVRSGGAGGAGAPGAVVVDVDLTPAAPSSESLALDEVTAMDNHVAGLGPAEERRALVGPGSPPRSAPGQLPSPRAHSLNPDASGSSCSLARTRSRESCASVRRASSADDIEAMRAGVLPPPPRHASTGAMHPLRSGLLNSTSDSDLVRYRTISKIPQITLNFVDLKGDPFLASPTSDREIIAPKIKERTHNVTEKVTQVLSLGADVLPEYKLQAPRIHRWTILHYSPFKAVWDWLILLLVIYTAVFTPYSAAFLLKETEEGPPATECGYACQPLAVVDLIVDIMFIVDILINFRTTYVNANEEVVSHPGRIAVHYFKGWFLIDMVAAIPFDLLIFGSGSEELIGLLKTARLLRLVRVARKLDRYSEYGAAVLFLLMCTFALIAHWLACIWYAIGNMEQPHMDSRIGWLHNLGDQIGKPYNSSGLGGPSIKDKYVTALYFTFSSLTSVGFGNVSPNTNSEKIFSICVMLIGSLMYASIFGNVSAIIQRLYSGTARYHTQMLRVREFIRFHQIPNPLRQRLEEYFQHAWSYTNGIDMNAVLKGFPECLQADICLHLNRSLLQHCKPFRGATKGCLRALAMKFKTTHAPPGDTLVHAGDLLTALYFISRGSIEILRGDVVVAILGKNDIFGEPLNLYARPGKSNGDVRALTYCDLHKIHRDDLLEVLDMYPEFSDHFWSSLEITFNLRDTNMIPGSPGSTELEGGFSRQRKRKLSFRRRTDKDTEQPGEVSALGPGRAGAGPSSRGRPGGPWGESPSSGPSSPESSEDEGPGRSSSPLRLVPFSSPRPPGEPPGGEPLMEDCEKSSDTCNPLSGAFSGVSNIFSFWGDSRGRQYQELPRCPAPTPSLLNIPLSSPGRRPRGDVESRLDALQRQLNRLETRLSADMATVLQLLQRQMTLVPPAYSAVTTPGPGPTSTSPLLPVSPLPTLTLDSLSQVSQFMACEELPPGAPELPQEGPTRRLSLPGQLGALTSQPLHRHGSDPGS
The next series has as its target hROMK (Homo sapiens (Human), UniProt P48048). Briefly: ROMK Manual Patch Clamp Assay. Particulars: whole-cell manual patch clamp, hROMK current; read-out: ROMK EP IC50. On the technique in general: Patch clamp records ionic current or voltage across a cell membrane.
The target of another series is hROMK (human Kir1.1) (Homo sapiens (Human), UniProt P48048). The series is described as follows: Thallium Flux Assay (FluxOR, CHO T-Rex hROMK stable cell line). The following applies: CHO T-Rex hROMK cells, 10-point concentration response curve; read-out: Human ROMK TH Flux IC50.
Sequence of hROMK (human Kir1.1) (P48048 whole entry): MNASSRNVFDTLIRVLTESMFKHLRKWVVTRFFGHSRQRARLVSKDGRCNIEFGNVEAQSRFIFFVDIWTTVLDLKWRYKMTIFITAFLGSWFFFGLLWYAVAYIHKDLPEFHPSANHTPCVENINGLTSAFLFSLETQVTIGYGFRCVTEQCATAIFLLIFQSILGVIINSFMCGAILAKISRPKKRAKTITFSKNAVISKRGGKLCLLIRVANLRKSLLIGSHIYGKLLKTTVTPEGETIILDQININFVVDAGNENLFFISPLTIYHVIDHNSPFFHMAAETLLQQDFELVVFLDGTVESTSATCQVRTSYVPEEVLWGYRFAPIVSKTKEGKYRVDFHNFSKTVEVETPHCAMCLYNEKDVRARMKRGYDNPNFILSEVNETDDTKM

Sequence of hROMK (P48048 whole entry): as above
Method for hERG channels: hERG electrophysiology assay: The experimental compounds were assessed for hERG activity on HEK 293 cells stably expressing hERG channels using patch clamp technique. Coverslips plated with hERG expressing cells were placed in the experimental chamber and were perfused with a solution composed of (in mM): 140 NaCl, 4 KCl, 1.8 CaCl2), 1 MgCl2, 10 Glucose, 10 HEPES (pH 7.4, NaOH) at room temperature. Borosilicate patch pipettes had tip resistances of 2-4 Mohms when filled with an internal solution containing: 130 KCl, 1 MgCl2, 1 CaCl2), 10 EGTA, 10 HEPES, 5 ATP-K2 (pH 7.2, KOH). The cells were clamped at −80 mV in whole cell configuration using an Axopatch 200B (Axon instruments, Union City, Calif.) patch clamp amplifier controlled by pClamp (Axon instruments) software. Upon formation of a gigaseal, the following voltage protocol was repeatedly (0.05 Hz) applied to record tail currents: depolarization step from −80 mV to +20 mV for 2 seconds followed by a hyperpolarization step to −65 mV (3 seconds) to elicit tail currents. Compounds were applied after stabilization of tail current. First, tail currents were recorded in presence of extracellular solution alone (control) and subsequently, in extracellular solution containing increasing compound concentrations. Each compound concentration was applied for 2-5 minutes. The percentage inhibition at each concentration was calculated as reduction in peak tail current with respect to the peak tail current recorded in the presence of control solution. Data analysis was performed in a custom made template. The percent inhibitions at different concentrations were plotted to obtain a concentration response curve, which was subsequently fitted with a four parameter equation to calculate hERG IC50 value.
A lower hERG % Inhibition value indicates less inhibition of the hERG current

Consider `CN(Cc1ccc(-c2ccc3oc(=O)n(C)c3c2)nc1)C[C@H](O)c1ccc2oc(=O)n(C)c2c1` [Example 6-I], for which, at hERG channels (% inhibition of hERG current at 1 uM, manual patch clamp, HEK 293 cells), the “hERG EP IC50 (% Inh @1 uM)” value was 26%. For the same compound, the concentration for half-maximal inhibition (IC50) on hROMK worked out at 0.011 µM.
The compound `COc1cc(-c2cc(CNC[C@H](O)c3ccc4c(c3C)COC4=O)on2)ncc1C#N` [Example 137, (R)-6-(5-(((2-hydroxy-2-(4-methyl-1-oxo-1,3-dihydroisobenzofuran-5-yl)ethyl)amino)methyl)isoxazol-3-yl)-4-methoxynicotinonitrile] returned an inhibition at 1 µM against hERG channels of 7.6%. Moreover, the half-maximal inhibitory concentration (IC50) came to 0.035 µM on hROMK (human Kir1.1) and 0.026 µM at hROMK.
Take `Cc1cc(-n2cc(CNCC(O)c3ccc4c(c3C3CC3)COC4=O)cn2)ncc1C#N` (single isomer, unassigned) [Example 46-I, 6-(4-(((2-(4-cyclopropyl-1-oxo-1,3-dihydroisobenzofuran-5-yl)2-hydroxyethyl)amino)meth-yl)-1H-pyrazol-1-yl)-4-methylnicotinonitrile]: the 50% inhibitory concentration (IC50) came out at 0.033 µM at hROMK (human Kir1.1) and 0.017 µM on hROMK.
On hERG channels, `Cc1c([C@@H](O)CNCc2ccc(-n3cnc(C#N)n3)nc2)ccc2c1COC2=O` [Example 132, (R)-1-(5-(((2-hydroxy-2-(4-methyl-1-oxo-1,3-dihydroisobenzofuran-5-yl)ethyl)amino)methyl)pyridin-2-yl)-1H-1,2,4-triazole-3-carbonitrile] registered an inhibition at 1 µM of 61%. Moreover, the half-maximal inhibitory concentration (IC50) on hROMK (human Kir1.1) stood at 0.026 µM.
Take `COc1cc(-c2ncc(CNC[C@H](O)c3ccc4c(c3C)COC4=O)cn2)ncc1C#N` [Example 134, (R)-6-(5-(((2-hydroxy-2-(4-methyl-1-oxo-1,3-dihydroisobenzofuran-5-yl)ethyl)amino)methyl)pyrimidin-2-yl)-4-methoxynicotinonitrile]: 1 µM produced 3.8% inhibition against hERG channels. The IC50 on hROMK (human Kir1.1) worked out at 0.077 µM.
In the same order, the values of `COc1nn(-c2ncc(CNC[C@H](O)c3ccc4c(c3C)COC4=O)cn2)cc1C#N` [Example 113, (R)-1-(5-(((2-hydroxy-2-(4-methyl-1-oxo-1,3-dihydroisobenzofuran-5-yl)ethyl)amino)methyl)pyrimidin-2-yl)-3-methoxy-1H-pyrazole-4-carbonitrile] are 12% and 0.014 µM.
Compound `Cc1cc(-n2cc(CNC[C@H](O)c3ccc4c(c3C)COC4=O)cn2)cnc1C#N` [Example 73, (R)-5-(4-(((2-hydroxy-2-(4-methyl-1-oxo-1,3-dihydroisobenzofuran-5-yl)ethyl)amino)methyl)-1H-pyrazol-1-yl)-3-methylpicolinonitrile] showed an inhibition at 1 µM on hERG channels of 31%. The IC50 on hROMK (human Kir1.1) was found to be 0.036 µM.
In the case of `Cc1c([C@@H](O)CNCc2cnc(-n3cnc(C#N)c3)nc2)ccc2c1COC2=O` [Example 45, (R)-1-(5-(((2-hydroxy-2-(4-methyl-1-oxo-1,3-dihydroisobenzofuran-5-yl)ethyl)amino)methyl)pyrimidin-2-yl)-1H-imidazole-4-carbonitrile], the inhibition at 1 µM against hERG channels is 74%. For the same compound, the 50% inhibitory concentration (IC50) on hROMK (human Kir1.1) was found to be 0.012 µM.
In the same order, the values of `COc1cc(-n2cc(CNC[C@H](O)c3ccc4c(c3C)COC4=O)cn2)ncc1C#N` [Example 173, (R)-6-(4-(((2-hydroxy-2-(4-methyl-1-oxo-1,3-dihydroisobenzofuran-5-yl)ethyl)amino)methyl)-1H-pyrazol-1-yl)-4-methoxynicotinonitrile] are 77% and 0.0024 µM.
The corresponding values for `Cc1c(-c2cnn(CCNC[C@H](O)c3ccc4c(c3C)COC4=O)c2)ccc2c1COC2=O` [Example 43, (R)-5-(l-hydroxy-2-((2-(4-(4-methyl-1-oxo-1,3-dihydroisobenzofuran-5-yl)-1H-pyrazol-1-yl)ethyl)amino)ethyl)-4-methylisobenzofuran-1(3H)-one] are 7.1% and 0.066 µM.
In the same order, the values of `Cc1c([C@@H](O)CNCc2cnc(-n3cnc(C(F)(F)F)c3)nc2)ccc2c1COC2=O` [Example 96, (R)-5-(1-hydroxy-2-(((2-(4-(trifluoromethyl)-1H-imidazol-1-yl)pyrimidin-5-yl)methyl)amino)ethyl)-4-methylisobenzofuran-1(3H)-one] are 19% and 0.062 µM.
Regarding `COc1c(CNC[C@H](O)c2ccc3c(c2C)COC3=O)cnn1-c1cc(C)c(C#N)cn1` [Example 35, (R)-6-(4-(((2-hydroxy-2-(4-methyl-1-oxo-1,3-dihydroisobenzofuran-5-yl)ethyl)amino)methyl)-5-methoxy-1H-pyrazol-1-yl)-4-methylnicotinonitrile], the inhibition at 1 µM at hERG channels stood at 91%. At hROMK (human Kir1.1), the IC50 came to 0.001 µM.
Regarding `Cc1ncc(-c2ccc(CNC[C@H](O)c3ccc4c(c3C)COC4=O)cn2)s1` [Example 111, (R)-5-(1-hydroxy-2-(((6-(2-methylthiazol-5-yl)pyridin-3-yl)methyl)amino)ethyl)-4-methylisobenzofuran-1(3H)-one], the inhibition at 1 µM against hERG channels is 69%. Also, at hROMK (human Kir1.1), the IC50 was determined as 0.048 µM.
The corresponding values for `COc1cc(-c2ccc(CNC[C@H](O)c3ccc4c(c3C)COC4=O)c(OC)n2)ncc1C#N` [Example 82, (R)-5′-(((2-hydroxy-2-(4-methyl-1-oxo-1,3-dihydroisobenzofuran-5-yl)ethyl)amino)methyl)-4,6′-dimethoxy-[2,2′-bipyridine]-5-carbonitrile] are 44% and 0.031 µM.
The compound `COc1nc(-n2cc(CNC[C@H](O)c3ccc4c(c3C)COC4=O)cn2)cc(C)c1C#N` [Example 72, (R)-6-(4-(((2-hydroxy-2-(4-methyl-1-oxo-1,3-dihydroisobenzofuran-5-yl)ethyl)amino)methyl)-1H-pyrazol-1-yl)-2-methoxy-4-methylnicotinonitrile] displayed an inhibition at 1 µM at hERG channels of 35%. Also, at hROMK (human Kir1.1), the IC50 turned out to be 0.014 µM.
As to `Cc1c([C@@H](O)CNCc2ccc(-n3ccc(C#N)n3)nc2)ccc2c1COC2=O` [Example 151, (R)-1-(5-(((2-hydroxy-2-(4-methyl-1-oxo-1,3-dihydroisobenzofuran-5-yl)ethyl)amino)methyl)pyridin-2-yl)-1H-pyrazole-3-carbonitrile], at hERG channels, at 1 µM the inhibition was 45%. Further, the IC50 on hROMK (human Kir1.1) stood at 0.029 µM.
In the same order, the values of `Cc1c([C@@H](O)CNCc2ccc(-n3cnc(C#N)c3)nc2)ccc2c1COC2=O` [Example 131, (R)-1-(5-(((2-hydroxy-2-(4-methyl-1-oxo-1,3-dihydroisobenzofuran-5-yl)ethyl)amino)methyl)pyridin-2-yl)-1H-imidazole-4-carbonitrile] are 79% and 0.0092 µM.
In the case of `Cc1c(C(O)CN(C)Cc2ccc(-n3cc(C#N)c4ccccc43)cc2)ccc2c1COC2=O` (stereo not drawn) [Example 12-I, 1-(4-(((2-hydroxy-2-(4-methyl-1-oxo-1,3-dihydroisobenzofuran-5-yl)ethyl)(methyl)amino)methyl)phenyl)-1H-indole-3-carbonitrile], on hERG channels, the inhibition at 1 µM was 99%. The IC50 on hROMK (human Kir1.1) was determined as 0.078 µM.
On hERG channels, `COc1cc(-n2cc(CNC[C@H](O)c3ccc4c(c3C)COC4=O)nc2C)ncc1C#N` [Example 52, (R)-6-(4-(((2-hydroxy-2-(4-methyl-1-oxo-1,3-dihydroisobenzofuran-5-yl)ethyl)amino)methyl)-2-methyl-1H-imidazol-1-yl)-4-methoxynicotinonitrile] gave an inhibition at 1 µM of 13%. Further, the concentration for half-maximal inhibition (IC50) on hROMK (human Kir1.1) came to 0.18 µM.
In turn, `Cc1cn(-c2ccc(CNC[C@H](O)c3ccc4c(c3C)COC4=O)cn2)nn1` [Example 118, (R)-5-(1-hydroxy-2-(((6-(4-methyl-1H-1,2,3-triazol-1-yl)pyridin-3-yl)methyl)amino)ethyl)-4-methylisobenzofuran-1(3H)-one] registered an inhibition at 1 µM at hERG channels of 16%. At hROMK (human Kir1.1), the IC50 was determined as 0.07 µM.
The corresponding values for `Cc1c([C@@H](O)CNCc2cn(-c3ccc4oc(=O)n(C)c4c3C)cn2)ccc2c1COC2=O` [Example 149, (R)-5-(4-(((2-hydroxy-2-(4-methyl-1-oxo-1,3-dihydroisobenzofuran-5-yl)ethyl)amino)methyl)-1H-imidazol-1-yl)-3,4-dimethylbenzo[d]oxazol-2(3H)-one] are 8.6% and 0.084 µM.
The corresponding values for `Cc1c(C(O)CNCc2ccc(-c3ccc(C#N)c(F)c3)cc2)ccc2c1COC2=O` (stereo not drawn) [Example 10-I, 3-fluoro-4′-(((2-hydroxy-2-(4-methyl-1-oxo-1,3-dihydroisobenzofuran-5-yl)ethyl)amino)methyl)-[1,1′-biphenyl]-4-carbonitrile] are 92% and 0.053 µM.
In the same order, the values of `Cc1cc(-n2cc(CNC[C@H](O)c3ccc4c(c3C)COC4=O)cn2)nc(C)c1C#N` [Example 71, (R)-6-(4-(((2-hydroxy-2-(4-methyl-1-oxo-1,3-dihydroisobenzofuran-5-yl)ethyl)amino)methyl)-1H-pyrazol-1-yl)-2,4-dimethylnicotinonitrile] are 39% and 0.022 µM.
`Cc1c(C(O)CN(C)Cc2ccc(-n3ccc4c(C#N)cccc43)cc2)ccc2c1COC2=O` (single isomer, unassigned) [Example 28-I, 1-(4-(((2-hydroxy-2-(4-methyl-1-oxo-1,3-dihydroisobenzofuran-5-yl)ethyl)(methyl)amino)methyl)phenyl)-1H-indole-4-carbonitrile] yielded an inhibition at 1 µM against hERG channels of 94%. Moreover, the half-inhibitory concentration (IC50) on hROMK (human Kir1.1) was found to be 0.18 µM.
In the same order, the values of `CCOc1cc(-n2cc(CNC[C@H](O)c3ccc4c(c3C)COC4=O)cn2)ncc1C#N` [Example 152, (R)-4-ethoxy-6-(4-(((2-hydroxy-2-(4-methyl-1-oxo-1,3-dihydroisobenzofuran-5-yl)ethyl)amino)methyl)-1H-pyrazol-1-yl)nicotinonitrile] are 64% and 0.0062 µM.

In general, IC50 refers to the point on the concentration scale where inhibition reaches its midpoint. One may read the inhibition as the change of the read-out against control, counted positive when it falls. High values mean a strong effect, low ones a weak effect.
